Laboratory results taken from US20070117182A1, “Nucleic acids conferring transcriptional responsiveness on the RANKL gene promoter and uses thereof” (Wisconsin Alumni Research Foundation, priority 2005, published 2007).

Key:
Assay type in all cases: cell-based, mouse
[1] = system: D5 region of the RANKL gene (RL-CCL); experiment: pTK-RL(D5) luciferase reporter in ST2 cells; settings: 24 hours; for luciferase activity via D5 (RL-CCL), TK promoter: agent alone
Method: FIG. 6. Transcriptional activity of the D5 regions of the RANKL gene in the context of the TK promoter. Sequence surrounding the D5 region (1072 bp) was cloned into the pTK-luciferase vector and termed pTK-RL(D5). […] Cells were harvested after 24 hours and luciferase activity assessed. B) ST2 cells were transfected as in A above but without the VDR expression vector and evaluated as in A. C) COS-7 cells were transfected and evaluated as in A above. Luciferase was normalized using beta-gal activity. Data represent the mean of triplicate determinations (SEM). The pTK-luc control vector was unresponsive to any of the inducers (see FIG. 9). *, p<0.05 vs no treatment control.
FIG. 11. […] A) Coordinates of the RL-D5 and the RL-D5b regions in the mouse RANKL upstream region. ST2 cells were transfected with either B) pTK-luc or pTK-mRL-D5 or C) pTK-luc and pTK-mRL-D5b and then treated with the indicated inducers. Cells were harvested after 24 hours and evaluated for luciferase activity. Luciferase was normalized using β-gal activity. Data represent the mean of triplicate determinations (SEM). *, p<0.05 vs no treatment control. **, p<0.05 vs no treatment and 1,25(OH)2D3 treated controls.
The activity of an enhancer must be evaluated in the context of its local environment, preferentially in the context of both other enhancers and its native promoter. In the case of the RANKL gene, however, this is clearly not possible due to the numbers and the distant locations of the potential regulatory regions. To tackle this problem, the inventors isolated approximately 800 to 1100 bp fragments of each region (D1 to D5) as identified through the ChIP/Chip analysis, cloned each into a luciferase expression vector under the control of a viral thymidine kinase (TK) minimal promoter, and explored the 1,25(OH)2D3- and GC-inducible activity of each following transfection into ST2 cells. […] Nevertheless, positive results provide added support for the potential regulatory capabilities of an individual DNA fragment even when examined in isolation. […] This induction was magnified by the addition of a VDR expression vector (FIG. 6a), but was also evident in the absence of such addition (FIG. 6b). […] To ensure that the viral TK promoter background was not contributing to our evaluation, the inventors cloned the mouse RANKL promoter (−100 to +65) into pGL3, inserted RL D5 and evaluated its activity in ST2 cells as well.
Based upon the above data, the inventors explored the possibility that similar to 1,25(OH)2D3, forskolin, PGE2 and OSM might be capable of activating transcription via the D5 fragment of the RANKL gene. […] Cells were harvested 24 hours later and evaluated for luciferase activity as in the previous experiments. […]

RANKL = experiment: RT-PCR of RANKL transcripts in treated ST2 cells; settings: treated up to 24 hours, agent alone, vs beta-actin controls
Method: FIG. 2. Induction of RANKL in ST2 cells by hormones and cytokines. ST2 cells were treated with the agents indicated for periods up to 24 hours. Total RNA was isolated and subjected to RT-PCR using a primer set to mouse RANKL and beta-actin. Positive vitamin D target control genes include Cyp24 and osteopontin (OPN).
The inventors first established a model in which RANKL is both induced in response to 1,25(OH)2D3, PTH (forskolin) and oncostatin M (OSM), and is capable of supporting osteoclast formation when co-cultured with bone marrow monocyte- or spleen cell-derived osteoclast precursors. While a number of cell types express RANKL and induce osteoclastogenesis, the historical literature strongly supports mouse ST2 cells in this capacity, prompting the inventors to focus on this stromal/preosteoblastic line for initial studies. […] Each of these components is known to both induce RANKL expression and promote osteoclast formation as well. […] Indeed, GC effects are widely observed. […] The ability of GCs to enhance osteoclast formation in coculture assays in the presence of 1,25(OH)2D3, however, is likely due also to its coordinate ability to suppress OPG.

[2] = system: RANKL gene upstream regions D1-D5; experiment: ChIP analysis of transcription factor binding to the RANKL gene in ST2 cells; settings: 6 hours
Method: FIG. 4. Confirmation of ChIP/chip data using ChIP. A) Linear arrangement of RANKL locus re-oriented 5′ to 3′ (left to right) indicating the positions of D5 to D1, P2, and P1/TSS. Designation of primer sets used for detection in ChIP is indicated. B) ST2 cells were treated with either vehicle or 1,25(OH)2D3 and then subjected to ChIP using antibodies to VDR, RXR or IgG. Precipitated DNA was evaluated using the primer sets identified in A.
FIG. 5. […] ST2 cells were treated with the above hormones and after 6 hours subjected to ChIP analysis using antibodies to VDR, RXR, GR, C/EBP, β, RNA pol II, and IgG. Precipitated DNA was evaluated for enrichment of the indicated regions of the RANKL gene.
FIG. 10. ChIP analysis of transcription factor binding to RL D5, the TSS and intervening regions of the RANKL locus in response to 1,25(OH)2D3, forskolin and oncostatin M (OSM). ST2 cells were treated for 6 hr with the indicated inducing agents and then subjected to ChIP analysis using antibodies to the indicated factors. Precipitated DNA was analyzed by PCR for enrichment of IS7, D5, IS6 and the TSS of the RANKL gene locus. See text for details of results.
The isolated DNA was then evaluated by PCR using primers as depicted in the diagram seen in FIG. 4a which were designed to amplify small DNA segments within the 5 regions as well as segments located at intervening sites (IS) outside the five regions.
The inventors hypothesized that GC's might perhaps enhance VDR binding to RANKL regulatory regions. […] The inventors focused on the RL-CCL region (D5) and amplified the precipitated DNA using primers to this region of the gene as well as to D4, D3 and TSS and intervening regions. […] The inventors also explored the possibility that C/EBPbeta might similarly participate in the RANKL activation process. C/EBPbeta plays a significant role in the regulation of osteoblastic genes, and is found associated with both 1,25(OH)2D3 and GC target genes.
In addition to 1,25(OH)2D3 and GCs, RANKL expression is also known to be modulated by such factors as PTH, PGE2, the gp130-activating cytokines IL-6 and OSM, as well as IL-1beta and TNFalpha. […] Forskolin was used as substitute for PTH, however, as ST2 cells are deficient in PTH receptor (PTHR). Both PTH/forskolin and PGE2 are known to induce RANKL gene expression via CREB whereas OSM functions via Stat3. […] The inventors therefore explored the possibility that the RL-CCL might represent a focal target for these inducers via either CREB or Stat3 in the RANKL gene locus. ST2 cells were treated with either vehicle, 1,25(OH)2D3, forskolin or OSM for a 6 hour period and then subjected to a ChIP analysis using antibodies to VDR, C/EBPbeta, CREB, phospho-CREB, ATF-2, ATF-4, Stat3, RNA pol II and control IgG. Isolated DNA was then subjected to amplification using primers corresponding to the D5 region (RL-CCL) of the RANKL gene. As controls, the inventors also assessed the extent to which the immunoprecipitations led to the enrichment of DNA at sites surrounding the D5 region of the RANKL gene.

Compound	luciferase activity via D5 (RL-CCL), TK promoter [1]	RANKL transcripts (RANKL)	CREB binding to the D5 region [2]	Stat3 binding to the D5 region [2]	VDR binding to RANKL regulatory regions (D5) ([2]; agent alone)	increase in transcriptional output via mRL-D5 ([1]; OSM 20 ng/ml) [fold]
CCCCC[C@H](O)/C=C/[C@H]1[C@H](O)CC(=O)[C@@H]1C/C=C\CCCC(=O)O [PGE2]	not forskolin or PGE2	substantial time-dependent increase	–	–	–	–
IL-1beta: cytokine known to induce RANKL expression	–	substantial time-dependent increase	–	–	–	–
TNFalpha	–	substantial time-dependent increase	–	–	–	–
oncostatin M [OSM]	responsive	substantial time-dependent increase	modestly increased CREB association	induces significant binding of Stat3	no effect on VDR binding	3
